Experimental data from paper PMC12627862, “Therapeutic targeting of endothelial calcium signaling accelerates the resolution of lung injury” (Signal Transduction and Targeted Therapy, 2025).
Starred links: 1 amine or outer side, 2 acyl side, 3 side chain; linkers in the order of their positions; H or OH if unused. Non-standard residues stand in square brackets, D forms with d. Residues, ends and D or L forms follow the SMILES beside them. ξ: configuration not given here. Oic = O=C(O)[C@@H]1C[C@@H]2CCCC[C@@H]2N1; GABOB(3R) = O=C(C[C@@H](O)CN[*:1])[*:2]; tBuAla = CC(C)(C)C[C@H](N)C(=O)O; ξVal(3-OH) = CC(C)(O)C(N)C(=O)O; 4Amb = NCc1ccc(C(=O)O)cc1

Key:
[1] = Non-GLP dose-escalation (MTD) study in rats; assay type: in vivo, rat; parameters: key to Clinical Signs / Body Weights / Clinical Chemistry / Hematology / Coagulation: NE = no effect; DA = decreased activity; LB = labored breathing; P = piloerection; HP = hunched posture; settings: rat, in vivo; male Crl:CD (SD) rats, single IV bolus; read-out: no observed adverse effect level (NOAEL)
[2] = tested on: Crl:CD (SD) rats; test: Non-GLP dose-escalation (MTD) study in rats; assay type: in vivo, rat; parameters: key to Clinical Signs / Body Weights / Clinical Chemistry / Hematology / Coagulation: NE = no effect; DA = decreased activity; LB = labored breathing; P = piloerection; HP = hunched posture; settings: for ALT / APTT / AST / Albumin / Alkaline Phosphatase / Blood Urea Nitrogen / Calcium / Chloride / Cholesterol / Creatinine / Fibrinogen / Globulin / Glucose / Phosphorus / Potassium / Prothrombin Time / Sodium / Total Bilirubin / Total Protein: male rats, day 2, mean, N=3; for Body Weights / Clinical Chemistry / Clinical Signs / Coagulation / Hematology: rats, n=3
[3] = in vitro; settings: mouse, plasma
Procedure: (§1) Stability assay of peptides in blood plasma of rodents, dogs, and humans. For the plasma stability assay, 5 μM of each peptide was incubated with species-specific plasma for 120 minutes and samples were taken at the required time points. Positive control used were molecules with known stability: enalapril, propantheline, and warfarin. The amount of test compound remaining at each time point was analyzed by LC-MS/MS. Appropriate control compounds for each species were also incubated.

[4] = tested on: CD-1 mice subjected to mechanical ventilation; test: High tidal volume mechanical ventilation (VILI); assay type: in vivo, mouse; settings: HVMV 40 mL/kg bw for 2 hours; i.v. 2 µmol/kg bw
Excerpt: Severely ill ARDS patients undergo intubation and are placed on a mechanical ventilator to maintain adequate oxygen levels in the body[42]. This supportive intervention can have detrimental effects on the lungs, leading to diffuse ventilator-induced lung injury (VILI) in the regions exposed to the highest pressure. Furthermore, VILI primarily targets alveolar epithelial cells, in contrast to indirect models of ARDS, such as endotoxemia and sepsis, where systemic inflammation predominantly injures the pulmonary endothelial barrier. Thus, as a part of a safety study, we investigated the effects of VT-109 on the pathogenesis of VILI. Mice that received vehicle or VT-109 at the most efficacious dose of 2 µmol/kg bw were subjected to high-volume mechanical ventilation (HVMV) at 40 mL/kg bw for 2 hours, and albumin extravasation was measured to determine VILI-induced vascular leakage (Fig. 4g, h).
Mice intubated with a 20-gauge catheter were ventilated using a Harvard Apparatus ventilator (Harvard Bioscience) with high tidal volumes of 40 mL/kg body weight, a respiratory rate of 80 breaths per minute, and no positive end-expiratory pressure (PEEP) for 2 hours to induce ventilator-induced lung injury (VILI). Intravenous treatment with 250 nmol/kg bw VT-109 was administered at the onset of HVMV. Mice breathing spontaneously were used as experimental control.

[5] = in vivo; settings: male, Crl:CD (SD), rat, iv, 5 mg/kg
Procedure: Blood samples were collected at predefined time points (2, 10, 30, 60, 90 minutes, and 2, 4, 6, 8, and 24 hours post-dosing) from subgroups of rats, ensuring each animal contributed a limited number of samples to minimize stress. Plasma was separated by centrifugation and stored at -80 °C until analysis. Lungs were collected at selected time points (0.5, 2, 8, and 24 hours) for drug quantification. […] Pharmacokinetic parameters, including Cmax, Tmax, AUC, half-life, clearance, and volume of distribution, were calculated using Phoenix WinNonlin software.

[6] = in vitro; settings: rat, plasma
Procedure: as §1

[7] = in vitro; settings: dog, plasma
Procedure: as §1

[8] = tested on: SARS-CoV-2 (WA1/2020); assay type: in vivo, mouse

## CC(C)(C)C[C@@H]1NC(=O)C[C@@H](O)CNC(=O)[C@@H]2C[C@@H]3CCCC[C@@H]3N2C(=O)[C@H](CC(C)(C)C)NC(=O)c2ccc(cc2)CNC(=O)C(C(C)(C)O)NC(=O)[C@@H](Cc2ccccc2)NC1=O (stereo partly drawn) [compound 109, (1^2S,1^3aS,1^7aS,3S,10S,13R,16S,20R)-13-benzyl-20-hydroxy-10-(2-hydroxypropan-2-yl)-3,16-dineopentyl-1^2,1^3,1^3a,1^4,1^5,1^6,1^7,1^7a-octahydro-1^1H-4,8,11,14,17,22-hexaaza-1(1,2)-indola-6(1,4)-benzenacyclotricosaphane-2,5,9,12,15,18,23-heptaone.] (cyclo([4Amb][tBuAla][Oic][GABOB(3R)][tBuAla][dF][ξVal(3-OH)]))
[1]
  NOAEL at 72 h: 5 mg/kg
[2]; human equivalent
  MTD, equivalent in humans: ~ 2.43 mg/kg
[2]; human equivalent dose
  LOAEL, HED: ~ 1.62 mg/kg
  NOAEL, HED: ~ 0.81 mg/kg
[2]; male Crl:CD (SD) rats, single IV bolus
  lowest observed adverse effect level (LOAEL): 10 mg/kg
[2]; 5 mg/kg
  ALT: 52.7 U/L
  APTT: 17.933 d¹ Seconds
  AST: 71.3 U/L
  Albumin: 3.0400 g/dL
  Alkaline Phosphatase: 381.7 U/L
  Blood Urea Nitrogen: 13.0 mg/dL
  Calcium: 11.320 mg/dL
  Chloride: 98.3 mmol/L
  Cholesterol: 86.0 5.6 3 mg/dL
  Creatinine: 0.3139 mg/dL
  Fibrinogen: 403.0 mg/dL
  Globulin: 2.239 g/dL
  Glucose: 161.3 mg/dL
  Phosphorus: 9.10 0.44 3 mg/dL
  Potassium: 5.93 d² mmol/L
  Prothrombin Time: 11.77 s
  Sodium: 141.3 mmol/L
  Total Bilirubin: 0.127 mg/dL
  Total Protein: 5.279 g/dL
[2]; 10 mg/kg
  ALT: 52.0 U/L
  APTT: 17.800 d¹ Seconds
  AST: 68.3 U/L
  Albumin: 3.2720 0.1274 3 g/dL
  Alkaline Phosphatase: 323.0 U/L
  Blood Urea Nitrogen: 18.7 mg/dL
  Calcium: 11.767 mg/dL
  Chloride: 99.0 mmol/L
  Cholesterol: 88.7 2.3 3 mg/dL
  Creatinine: 0.318 mg/dL
  Fibrinogen: 453.3 mg/dL
  Globulin: 2.523 0.078 3 g/dL
  Glucose: 126.7 10.5 3 mg/dL
  Phosphorus: 9.67 0.45 3 mg/dL
  Potassium: 5.77 mmol/L
  Prothrombin Time: 12.27 d¹ Seconds
  Sodium: 144.0 mmol/L
  Total Bilirubin: 0.127 mg/dL
  Total Protein: 5.795 0.203 3 g/dL
[2]; 15 mg/kg
  ALT: 52.7 U/L
  APTT: 16.867 s
  AST: 69.7 U/L
  Albumin: 3.1030 d² 0.0465 3 g/dL
  Alkaline Phosphatase: 286.0 U/L
  Blood Urea Nitrogen: 15.7 d² mg/dL
  Calcium: 11.590 mg/dL
  Chloride: 97.0 d² mmol/L
  Cholesterol: 91.0 6.1 3 mg/dL
  Creatinine: 0.352 mg/dL
  Fibrinogen: 438.3 mg/dL
  Globulin: 2.488 0.021 3 g/dL
  Glucose: 142.3 d² 1.2 3 mg/dL
  Phosphorus: 9.00 0.26 3 mg/dL
  Potassium: 5.47 mmol/L
  Prothrombin Time: 11.67 s
  Sodium: 142.0 mmol/L
  Total Bilirubin: 0.140 mg/dL
  Total Protein: 5.591 d² 0.067 3 g/dL
[2]; single IV bolus 5 mg/kg
  Body Weights: NE
  Clinical Chemistry: NE
  Clinical Signs: DA
  Coagulation: NE
  Hematology: NE
[2]; single IV bolus 10 mg/kg
  Body Weights: NE
  Clinical Chemistry: ↑BUN
  Clinical Signs: DA, LB
  Coagulation: NE
  Hematology: ↓%Reticulocytes
[2]; single IV bolus 15 mg/kg
  Body Weights: NE
  Clinical Chemistry: ↑BUN ↑Creatinine
  Clinical Signs: DA, LB, P, HP
  Coagulation: NE
  Hematology: ↓Platelet Count ↓%Reticulocytes ↑Mean Platelet Volume
  lung gross histopathology: intra-alveolar hemorrhage and pigment deposition
[3]
  half-life at 5 μM: > 8 h
  remaining at 2 h, 5 μM: 89.8%
[4]
  VILI-induced vascular albumin leakage: markedly reduced leakage
  recruitment of neutrophils (MPO levels in the lung tissues): prevented
[5]
  level at 0.167 h: 23700 ng/mL
  level at 0.5 h: 2550 ng/mL
  level at 1 h: 580 ng/mL
  level at 1.5 h: 399 ng/mL
  level at 2 h: 252 ng/mL
  level at 4 h: 127 ng/mL
  level at 6 h: 66.3 ng/mL
  level at 8 h: 42.7 ng/mL
  level at 24 h: 5.9 ng/mL
[6]
  half-life at 5 μM: 4.88 h
  remaining at 2 h, 5 μM: 76.5%
[7]
  half-life at 5 μM: > 8 h
  remaining at 2 h, 5 μM: 91.9%
[8]; 250 nmol/kg bw from 1 dpi
  lung injury (ALI score): promoted the resolution of lung injury by day 7
[8]; 250 nmol/kg bw, 7 dpi
  NFATC2 nuclear accumulation in endothelial and immune cells: reduced NFATC2 nuclear accumulation
  VE-cadherin junctions: reannealed junctions
[8]; 2 µmol/kg bw i.v.
  number of infiltrating monocytes and neutrophils in the BALF: significantly reduced
[8]; 2 µmol/kg bw i.v., 5 dpi
  blood-brain barrier (BBB) integrity, cerebral cortex: restored BBB integrity
